One data set deals with T1, hFXR (Homo sapiens, UniProt Q96RI1).
T1 construct: expressed in transfected cells; host or cells: CV-1 cells
T1 sequence (Q96RI1 1-486): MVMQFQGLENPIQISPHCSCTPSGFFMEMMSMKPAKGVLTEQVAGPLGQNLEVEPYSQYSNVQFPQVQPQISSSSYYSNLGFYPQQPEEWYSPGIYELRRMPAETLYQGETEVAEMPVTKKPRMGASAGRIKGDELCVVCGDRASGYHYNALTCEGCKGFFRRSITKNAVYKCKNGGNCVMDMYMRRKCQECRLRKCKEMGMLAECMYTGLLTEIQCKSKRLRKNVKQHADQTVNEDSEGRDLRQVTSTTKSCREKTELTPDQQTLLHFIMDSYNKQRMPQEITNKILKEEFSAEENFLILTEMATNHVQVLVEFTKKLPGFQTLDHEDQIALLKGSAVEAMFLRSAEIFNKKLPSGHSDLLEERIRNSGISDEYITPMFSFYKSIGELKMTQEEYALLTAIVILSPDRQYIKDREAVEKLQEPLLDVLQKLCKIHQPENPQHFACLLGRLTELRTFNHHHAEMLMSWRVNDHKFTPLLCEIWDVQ
T1 sequence (P19793 1-462 partner): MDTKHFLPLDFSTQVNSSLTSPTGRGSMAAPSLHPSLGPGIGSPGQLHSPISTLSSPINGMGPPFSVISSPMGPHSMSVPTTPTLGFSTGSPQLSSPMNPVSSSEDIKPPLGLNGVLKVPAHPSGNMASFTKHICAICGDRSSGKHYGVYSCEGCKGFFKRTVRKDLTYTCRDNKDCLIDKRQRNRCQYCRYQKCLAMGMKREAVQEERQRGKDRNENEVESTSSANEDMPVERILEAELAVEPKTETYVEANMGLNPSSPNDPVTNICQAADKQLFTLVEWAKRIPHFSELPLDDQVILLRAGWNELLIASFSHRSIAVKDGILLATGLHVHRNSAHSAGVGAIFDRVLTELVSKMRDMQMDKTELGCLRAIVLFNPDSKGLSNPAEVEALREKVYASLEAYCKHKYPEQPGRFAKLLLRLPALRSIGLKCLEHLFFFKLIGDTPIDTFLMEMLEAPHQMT
In words: In Vitro FXR Assay (TK). In kind it is cell-based. To be noted: transfected CV-1 cells (hFXR, hRXR, TK-ECRE-luc), 18 hrs incubation, luminescence. Here is the method:
CV-1 cells were seeded at a density of 2,000,000 cells in a T175 flask with DMEM+10% charcoal double-stripped FBS and incubated at 37° C. in 5% CO2 for 18 h (O/N).
After 18 h of incubation, the medium in the T175 flask was changed with fresh DMEM+10% charcoal super-stripped serum. In a polypropylene tube, 2500 μL OptiMEM (Life Technologies, Cat #31985-062) was combined with expression plasmids for hFXR, hRXR, TK-ECRE-luc and pCMX-YFP. The tube was then briefly vortexed and incubated at room temperature for 5 minutes. Transfection reagent (X-tremeGENE HP from Roche, Cat #06 366 236 001) was added to the OptiMEM/plasmid mixture vortexed and incubated at room temperature for 20 minutes. Following incubation, the transfection reagent/DNA mixture complex was added to cells in the T175 flask and the cells were incubated at 37° C. in 5% CO2 for 18 h (O/N).
Compound 1 was serially diluted in DMSO and added to transfected CV-1 cells. The cells were then incubated for 18 hrs. The next day cells were lysed and examined for luminescence. Compound 1 TK hFXR: EC50≤0.01 μM.

In a further data set the target is T2, FXR (Homo sapiens, UniProt Q96RI1).
T2 sequence (Q96RI1 1-486): T1 sequence (Q96RI1 1-486)
To be noted: published clinical studies, higher administered doses; cited from earlier work.

By EC50 is commonly meant the midpoint of the concentration-response curve. A high value points to a need for much substance. At hFXR, `COc1ccc(C23CCC(CN(c4cc(-c5cnn(C(C)(C)C)c5)ccn4)C(=O)[C@H]4CC[C@H](OC(=O)N5CC(O)C5)CC4)(CC2)CC3)cc1C` [Compound 1, 4-((4-(1-(tert-butyl)-1H-pyrazol-4-yl)pyridin-2-yl)((4-(4-methoxy-3-methylphenyl)bicyclo[2.2.2]octan-1-yl)methyl)carbamoyl)cyclohexyl 3-hydroxyazetidine-trans-1-carboxylate] came in with a concentration giving a half-maximal response (EC50) not above 10 nM.

Take `CC[C@H]1[C@@H](O)[C@@H]2[C@H](CC[C@]3(C)[C@@H]([C@H](C)CCC(=O)O)CC[C@@H]23)[C@@]2(C)CC[C@@H](O)C[C@@H]12` [OCA, Obeticholic acid]: on FXR, the adverse side effects result was “adverse side effects at higher administered doses, such as pruritis, increased LDL cholesterol and liver toxicity”.
